Laboratory results: US20250339531A1, “DUX4 POLYPEPTIDES AND NUCLEIC ACIDS FOR TREATING INFLAMMATORY AND AUTOIMMUNE CONDITIONS” (Fred Hutchinson Cancer Center, priority 2021, published 2025)

System: proteins that co-immunoprecipitated with DUX4-CTD constructs expressed in MB135 myoblasts
Test: LC-MS of proteins co-immunoprecipitated with DUX4-CTD (Table 1) and western validation
Type: binding, human
Set-up: key to 4. mL1dL2 + Dox + IFNG / 4. + IFNG mix / 4. longCTD + Dox + IFNG / 3. + IFNg + Dox longCTD / 3. + Dox longCTD / 3. + IFNG longCTD: peptide-spectrum matches (PSMs) per protein
Conditions: for 4. longCTD + Dox + IFNG: LC-MS counts of the listed protein co-immunoprecipitated with DUX4-CTD bait longCTD; for 3. + Dox longCTD / 3. + IFNg + Dox longCTD / 3. + IFNG longCTD: bait longCTD; for 3. + Dox longCTD: experiment 3, Dox only; for 3. + IFNg + Dox longCTD: experiment 3, IFNg + Dox; for SUM of PSMS: sum over all samples; for 3. + IFNG longCTD: experiment 3, IFNG only, no doxycycline (bait at background level)
Text: As an unbiased method to identify proteins that interact with the C-terminal region of DUX4, liquid chromatography mass spectroscopy (LC-MS) was used to identify proteins that co-immunoprecipitated with DUX4-CTD constructs expressed in MB135 myoblasts. In the first experiment, MB135iDUX4-CTD cells were used, either untreated, treated with doxycycline alone, or with both doxycycline and IFNG. In the second experiment, MB135iDUX4-CTD and MB135iDUX4mL1dL2 cells were used, both treated with doxycycline and IFNG, compared to these two cell lines untreated and combined as a control. Proteins with a minimum of 2 peptide spectrum matches (PSMs) in at least one sample that were identified in both experiments were assigned to one of ten categories (see Methods) to separate candidate interactors from other categories that might be co-purified because of obligate interactions (e.g., proteasome or ribosome) or might be less likely to be physiologically relevant (e.g., cytoskeletal proteins). Candidate interactors were then ranked based on the total PSMs for that protein across all samples.
Centrifugation at 2500 rcf at 4° C. for 5 min pelleted the nuclei, supernatant was discarded, and nuclei resuspended in 1 mL IP buffer pH 7.4 (25 mM Tris-HCl pH 7.5, 175 mM NaCl, 1 mM EDTA, 0.2% NP-40, 5% glycerol) and incubated for 1 hour at 4° C. with rotation then spun at 21000 rcf for 10 minutes at 4° C. to pellet insoluble debris. Protein concentration was determined using the Pierce BCA Protein Assay Kit (ThermoFisher, 23225). An equivalent amount of protein per sample was pre-cleared with Dynabeads Protein G (Invitrogen) bound to mouse IgG (Abcam #131368) for 1 hour at 4° C. with rotation. FLAG-tagged constructs were then immunoprecipitated with Dynabeads Protein G beads coupled to mouse anti-FLAG M2 mAb (Sigma F3165) for 3 hours at 4° C. with rotation. Beads were washed 3× with 1 mL IP buffer and eluted by adding 2× NuPage LDS Sample Buffer (Thermo Fisher, diluted from 4× with PBS) to the beads and heating for 10 minutes at 70° C.
For LC-MS, anti-FLAG immunoprecipitation was performed with beads cross-linked to the anti-FLAG antibody and the proteins competitively eluted with FLAG peptide. Eluted protein samples were electrophoresed into a NuPage 4-12% Bis-Tris gel, excised, and processed by the Fred Hutchinson Cancer Research Center Proteomics Core. Samples were reduced, alkylated, digested with trypsin, desalted, and run on the Orbitrap Eclipse Tribid Mass Spectrometer (Thermo Fisher). Proteomics data were analyzed using Proteome Discoverer 2.4 against a Uniprot human database that included common contaminants using Sequest HT and Percolator for scoring. […] Proteins that were identified in at least one sample from both independent experiments with at least 2 PSMs in one sample were assigned to one of ten categories: 1, candidates; 2, cytoskeletal associated; 3, cytoskeletal; 4, ribosome/translation associated; 5, proteasome associated; 6, membrane or extracellular; ER, golgi, or vesicle associated; 8, lipid metabolism; 9, chaperones; 10, nuclear import or nuclear membrane associated. The proteins in category 1 were further investigated for interactions with DUX4.

[1] = LC-MS value per protein co-immunoprecipitated from MB135 myoblasts, + IFNG mix sample (no Dox), kind of count not given
[2] = LC-MS value per protein co-immunoprecipitated with DUX4-CTD construct mL1dL2 in MB135 myoblasts, + Dox + IFNG, kind of count not given
[3] = LC-MS counts of the listed protein co-immunoprecipitated with DUX4-CTD bait mL1dL2, experiment 4, Dox + IFNG
[4] = LC-MS counts of the listed protein in anti-FLAG co-IP, experiment 4, IFNG, no doxycycline, mix, MB135 myoblasts

Substance | 4. longCTD + Dox + IFNG (experiment 4, Dox + IFNG) | 3. + Dox longCTD | 3. + IFNg + Dox longCTD | SUM of PSMS | 4. mL1dL2 + Dox + IFNG [2] | also measured
P61978 | 6 | 2 | 8 | 31 | – | –
Q14315 | 12 | 2 | 7 | 24 | – | –
Q15149 | 7 | 5 | 21 | 52 | – | –
P17661 | 12 | 9 | 15 | 84 | – | 3. + IFNG longCTD: 14
Q9Y490 | 3 | 1 | 1 | 5 | – | –
P30153 | 2 | 5 | 14 | 28 | – | 3. + IFNG longCTD: 2
MYH9 | – | – | – | – | 1 | 4. + IFNG mix [1]: 10
P50990 | 3 | – | 2 | 6 | – | 4. mL1dL2 + Dox + IFNG [3]: 1
P26641 | 1 | 3 | 6 | 11 | – | –
HNRNPK | – | – | – | – | 12 | 4. + IFNG mix [1]: 3
PTBP1 | – | – | – | – | 1 | –
HNRNPU | – | – | – | – | 1 | –
PSME2 | – | – | – | – | 4 | –
P38646 | 7 | 1 | 10 | 30 | – | 4. mL1dL2 + Dox + IFNG [3]: 11; 4. + IFNG mix [4]: 1
STAT3 | – | – | – | – | 1 | –
P08670 | 55 | 42 | 45 | 290 | – | 3. + IFNG longCTD: 39
P07237 | 14 | 3 | 5 | 51 | – | –
P40763 | – | 1 | 3 | 5 | – | –
P10644 | 3 | – | 4 | 11 | – | 4. mL1dL2 + Dox + IFNG [3]: 4
FLNA | – | – | – | – | 4 | 4. + IFNG mix [1]: 3
VIM | – | – | – | – | 43 | 4. + IFNG mix [1]: 66
Q15208 | 6 | – | – | 11 | – | 3. + IFNG longCTD: 1
YBX3 | – | – | – | – | 7 | –
P68363 | – | 22 | – | 55 | – | –
Q9ULV4 | 7 | 4 | 13 | 24 | – | –

Substance | 4. longCTD + Dox + IFNG (experiment 4, Dox + IFNG) | 3. + Dox longCTD | 3. + IFNg + Dox longCTD | SUM of PSMS | 4. mL1dL2 + Dox + IFNG [2] | also measured
P21333 | 10 | 1 | 12 | 30 | – | –
PPP2R1A | – | – | – | – | 5 | –
TUBB4B | – | – | – | – | 47 | 4. + IFNG mix [1]: 13
P63010 | – | 8 | 26 | 35 | – | –
NPM1 | – | – | – | – | 4 | 4. + IFNG mix [1]: 2
DES | – | – | – | – | 10 | 4. + IFNG mix [1]: 24
AHNAK | – | – | – | – | – | 4. + IFNG mix [1]: 1
P16989 | – | 1 | 3 | 11 | – | –
P08123 | – | 1 | – | 4 | – | 3. + IFNG longCTD: 1
P78371 | 4 | – | 1 | 7 | – | 4. mL1dL2 + Dox + IFNG [3]: 2
CLTC | – | – | – | – | 8 | –
TUBA1B | – | – | – | – | 24 | 4. + IFNG mix [1]: 9
FN1 | – | – | – | – | – | 4. + IFNG mix [1]: 3
P11021 | 44 | 22 | 62 | 209 | – | 4. mL1dL2 + Dox + IFNG [3]: 49; 4. + IFNG mix [4]: 31; 3. + IFNG longCTD: 1
PSMA6 | – | – | – | – | 4 | –
PRKDC | – | – | – | – | 5 | 4. + IFNG mix [1]: 11
O60684 | 1 | 4 | 4 | 15 | – | 4. mL1dL2 + Dox + IFNG [3]: 6
Q13200 | 4 | – | 3 | 11 | – | –
P06748 | – | 2 | 8 | 16 | – | –
Q93008 | 3 | – | 5 | 15 | – | –
PSMD2 | – | – | – | – | 3 | 4. + IFNG mix [1]: 1
STK38 | – | – | – | – | – | 4. + IFNG mix [1]: 4
P47929 | 6 | 1 | 1 | 8 | – | –
Q00839 | – | 4 | 9 | 14 | – | –
P08238 | 10 | 2 | 14 | 32 | – | 4. mL1dL2 + Dox + IFNG [3]: 6

Substance | 4. longCTD + Dox + IFNG (experiment 4, Dox + IFNG) | 3. + Dox longCTD | 3. + IFNg + Dox longCTD | SUM of PSMS | 4. mL1dL2 + Dox + IFNG [2] | also measured
P35579 | 4 | 122 | 242 | 387 | – | 3. + IFNG longCTD: 8
PLEC | – | – | – | – | 16 | 4. + IFNG mix [1]: 3
P50991 | 1 | – | 1 | 5 | – | 4. mL1dL2 + Dox + IFNG [3]: 3
USP9X | – | – | – | – | 7 | –
P11940 | 3 | – | 13 | 21 | – | –
P02751 | – | 17 | 48 | 68 | – | –
EEF1G | – | – | – | – | 1 | –
P07900 | 10 | – | 9 | 30 | – | 4. mL1dL2 + Dox + IFNG [3]: 5; 4. + IFNG mix [4]: 6
P52294 | 2 | 4 | 8 | 15 | – | 4. mL1dL2 + Dox + IFNG [3]: 1
P68371 | 100 | 42 | 70 | 283 | – | 3. + IFNG longCTD: 11
Q09666 | 1 | 8 | 4 | 14 | – | –
Q13283 | 2 | 1 | 2 | 7 | – | –
G3BP1 | – | – | – | – | 1 | 4. + IFNG mix [1]: 1
PABPC1 | – | – | – | – | 5 | –
P48681 | 2 | 4 | 4 | 18 | – | 3. + IFNG longCTD: 1
NES | – | – | – | – | 1 | 4. + IFNG mix [1]: 6
P4HB | – | – | – | – | 20 | 4. + IFNG mix [1]: 9
COL1A2 | – | – | – | – | – | 4. + IFNG mix [1]: 2
FLNC | – | – | – | – | 2 | 4. + IFNG mix [1]: 1
XRCC5 | – | – | – | – | 1 | –
P78527 | 2 | 3 | 18 | 39 | – | –
P49368 | 2 | – | 1 | 7 | – | 4. mL1dL2 + Dox + IFNG [3]: 4
ENO1 | – | – | – | – | 3 | 4. + IFNG mix [1]: 6
